Data published in ChEMBL document CHEMBL4507315 (2021).

Legend:
[1] = tested on: Tyrosine-protein kinase ABL1 (Homo sapiens), P00519 [T315I]; details: Compound concentration 100.0 nM
[2] = molecular target: Activin receptor type-1 (Homo sapiens) (UniProt Q04771); details: Compound concentration 100.0 nM
[3] = molecular target: Activin receptor type-2A (Homo sapiens) (UniProt P27037); details: Compound concentration 100.0 nM
[4] = molecular target: RAC-beta serine/threonine-protein kinase (Homo sapiens) (UniProt P31751); details: Compound concentration 100.0 nM
Sequence of RAC-beta serine/threonine-protein kinase (Homo sapiens) (P31751 whole entry): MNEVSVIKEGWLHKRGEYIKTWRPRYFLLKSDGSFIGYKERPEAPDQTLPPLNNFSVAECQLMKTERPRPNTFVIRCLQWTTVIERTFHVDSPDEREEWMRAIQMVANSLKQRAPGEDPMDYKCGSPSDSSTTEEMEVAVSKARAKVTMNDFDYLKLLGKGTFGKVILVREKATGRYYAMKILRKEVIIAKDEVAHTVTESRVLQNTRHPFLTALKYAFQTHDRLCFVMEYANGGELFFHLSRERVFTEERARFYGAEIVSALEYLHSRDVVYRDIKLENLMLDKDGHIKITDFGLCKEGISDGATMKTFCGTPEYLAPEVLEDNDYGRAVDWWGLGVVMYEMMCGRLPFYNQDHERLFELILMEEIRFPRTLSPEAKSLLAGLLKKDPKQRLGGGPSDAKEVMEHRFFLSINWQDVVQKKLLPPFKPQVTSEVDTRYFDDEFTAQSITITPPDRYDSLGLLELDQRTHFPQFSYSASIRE

[5] = molecular target: NUAK family SNF1-like kinase 1 (Homo sapiens) (UniProt O60285); details: Compound concentration 100.0 nM
Sequence of NUAK family SNF1-like kinase 1 (Homo sapiens) (O60285 whole entry): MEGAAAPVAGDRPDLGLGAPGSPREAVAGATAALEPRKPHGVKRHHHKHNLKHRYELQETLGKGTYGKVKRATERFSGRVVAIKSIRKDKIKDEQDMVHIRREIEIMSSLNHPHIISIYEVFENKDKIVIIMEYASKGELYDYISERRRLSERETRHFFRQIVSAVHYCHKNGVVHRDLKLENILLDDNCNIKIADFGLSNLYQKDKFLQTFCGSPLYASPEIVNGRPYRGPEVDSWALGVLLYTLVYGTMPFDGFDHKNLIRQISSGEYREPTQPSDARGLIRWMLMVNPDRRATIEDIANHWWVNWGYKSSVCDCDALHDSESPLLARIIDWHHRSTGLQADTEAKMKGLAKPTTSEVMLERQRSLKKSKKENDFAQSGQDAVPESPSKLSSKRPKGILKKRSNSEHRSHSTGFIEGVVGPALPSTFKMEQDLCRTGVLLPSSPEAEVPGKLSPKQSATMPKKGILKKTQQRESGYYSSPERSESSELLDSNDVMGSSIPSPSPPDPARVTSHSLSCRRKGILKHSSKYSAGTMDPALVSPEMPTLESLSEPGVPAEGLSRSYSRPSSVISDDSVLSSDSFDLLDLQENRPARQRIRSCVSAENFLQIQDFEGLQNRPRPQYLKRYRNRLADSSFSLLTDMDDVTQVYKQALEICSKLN

[6] = molecular target: Mitogen-activated protein kinase kinase kinase 6 (Homo sapiens) (UniProt O95382); details: Compound concentration 100.0 nM
[7] = molecular target: Mitotic checkpoint serine/threonine-protein kinase BUB1 (Homo sapiens) (UniProt O43683); details: Compound concentration 100.0 nM
[8] = molecular target: Calcium/calmodulin-dependent protein kinase type 1D (Homo sapiens) (UniProt Q8IU85); details: Compound concentration 100.0 nM
Sequence of Calcium/calmodulin-dependent protein kinase type 1D (Homo sapiens) (Q8IU85 whole entry, looked up): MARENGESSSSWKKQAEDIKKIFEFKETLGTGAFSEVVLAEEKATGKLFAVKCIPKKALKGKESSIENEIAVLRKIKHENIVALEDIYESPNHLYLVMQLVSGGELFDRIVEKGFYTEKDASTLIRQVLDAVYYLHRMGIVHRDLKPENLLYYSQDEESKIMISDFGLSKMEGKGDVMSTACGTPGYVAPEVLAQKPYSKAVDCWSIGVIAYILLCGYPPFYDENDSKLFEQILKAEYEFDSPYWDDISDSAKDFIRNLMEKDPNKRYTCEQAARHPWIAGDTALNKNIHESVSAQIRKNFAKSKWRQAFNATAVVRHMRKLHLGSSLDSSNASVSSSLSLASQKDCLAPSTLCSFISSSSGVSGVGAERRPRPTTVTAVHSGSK

[9] = molecular target: Cyclin-dependent kinase 2 (Homo sapiens) (UniProt P24941); details: Compound concentration 100.0 nM
[10] = molecular target: Casein kinase I isoform epsilon (Homo sapiens) (UniProt P49674); details: Compound concentration 100.0 nM
[11] = molecular target: Casein kinase I isoform gamma-3 (Homo sapiens) (UniProt Q9Y6M4); details: Compound concentration 100.0 nM
Sequence of Casein kinase I isoform gamma-3 (Homo sapiens) (Q9Y6M4 whole entry, looked up, canonical isoform): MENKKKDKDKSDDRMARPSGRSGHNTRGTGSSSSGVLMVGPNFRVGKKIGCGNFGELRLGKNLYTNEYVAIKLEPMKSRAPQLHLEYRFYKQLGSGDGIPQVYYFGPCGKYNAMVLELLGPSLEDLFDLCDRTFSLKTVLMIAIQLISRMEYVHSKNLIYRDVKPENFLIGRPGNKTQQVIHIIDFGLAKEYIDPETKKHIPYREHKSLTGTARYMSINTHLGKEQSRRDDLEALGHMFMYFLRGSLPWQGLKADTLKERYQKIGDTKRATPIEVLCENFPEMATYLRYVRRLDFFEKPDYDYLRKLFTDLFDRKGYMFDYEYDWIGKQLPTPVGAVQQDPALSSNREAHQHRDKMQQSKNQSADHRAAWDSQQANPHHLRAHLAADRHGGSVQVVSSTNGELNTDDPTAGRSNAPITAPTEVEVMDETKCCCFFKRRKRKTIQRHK

[12] = tested on: Epidermal growth factor receptor (Homo sapiens), P00533 [G719S]; details: Compound concentration 100.0 nM
[13] = molecular target: Ephrin type-B receptor 6 (Homo sapiens) (UniProt O15197); details: Compound concentration 100.0 nM
[14] = molecular target: Focal adhesion kinase 1 (Homo sapiens) (UniProt Q05397); details: Compound concentration 100.0 nM
Sequence of Focal adhesion kinase 1 (Homo sapiens) (Q05397 2-1052 limits assumed): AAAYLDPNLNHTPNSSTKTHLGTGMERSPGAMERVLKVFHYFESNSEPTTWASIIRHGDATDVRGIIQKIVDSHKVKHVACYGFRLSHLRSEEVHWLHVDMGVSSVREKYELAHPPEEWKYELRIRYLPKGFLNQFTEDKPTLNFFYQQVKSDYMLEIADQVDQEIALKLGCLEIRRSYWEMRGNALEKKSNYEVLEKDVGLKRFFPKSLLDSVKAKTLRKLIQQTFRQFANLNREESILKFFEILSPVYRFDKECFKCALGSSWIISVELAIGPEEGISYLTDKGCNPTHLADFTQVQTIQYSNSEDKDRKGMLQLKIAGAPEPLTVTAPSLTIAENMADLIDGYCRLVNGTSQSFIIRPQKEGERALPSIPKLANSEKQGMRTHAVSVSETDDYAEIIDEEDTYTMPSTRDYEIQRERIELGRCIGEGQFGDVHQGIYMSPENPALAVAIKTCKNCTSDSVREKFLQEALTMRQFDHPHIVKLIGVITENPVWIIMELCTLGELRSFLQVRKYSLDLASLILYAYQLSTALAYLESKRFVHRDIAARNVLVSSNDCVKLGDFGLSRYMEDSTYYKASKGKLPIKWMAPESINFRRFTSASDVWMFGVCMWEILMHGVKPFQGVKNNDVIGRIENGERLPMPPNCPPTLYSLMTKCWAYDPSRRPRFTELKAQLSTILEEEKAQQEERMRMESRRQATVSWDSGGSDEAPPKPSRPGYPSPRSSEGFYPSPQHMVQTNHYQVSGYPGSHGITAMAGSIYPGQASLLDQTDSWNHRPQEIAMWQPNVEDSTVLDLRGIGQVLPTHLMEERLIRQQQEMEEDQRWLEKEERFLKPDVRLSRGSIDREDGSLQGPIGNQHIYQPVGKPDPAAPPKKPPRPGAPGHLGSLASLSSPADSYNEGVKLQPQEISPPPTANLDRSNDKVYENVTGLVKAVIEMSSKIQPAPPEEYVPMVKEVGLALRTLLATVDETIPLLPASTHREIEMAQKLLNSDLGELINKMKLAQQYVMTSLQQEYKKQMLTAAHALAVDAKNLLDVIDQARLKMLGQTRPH

[15] = tested on: Receptor-type tyrosine-protein kinase FLT3 (Homo sapiens), P36888 [N841I]; details: Compound concentration 100.0 nM
[16] = tested on: Receptor-type tyrosine-protein kinase FLT3 (Homo sapiens), P36888 [R834Q]; details: Compound concentration 100.0 nM
[17] = molecular target: Receptor-type tyrosine-protein kinase FLT3 (Homo sapiens) (UniProt P36888); details: Compound concentration 100.0 nM
[18] = tested on: eIF-2-alpha kinase GCN2 (Homo sapiens), Q9P2K8 [S808G]; details: Compound concentration 100.0 nM
[19] = tested on: Mast/stem cell growth factor receptor Kit (Homo sapiens), P10721 [L576P]; details: Compound concentration 100.0 nM
[20] = molecular target: Serine/threonine-protein kinase 10 (Homo sapiens) (UniProt O94804); details: Compound concentration 100.0 nM
[21] = molecular target: Mitogen-activated protein kinase kinase kinase kinase 3 (Homo sapiens) (UniProt Q8IVH8); details: Compound concentration 100.0 nM
[22] = molecular target: Mitogen-activated protein kinase kinase kinase kinase 4 (Homo sapiens) (UniProt O95819); details: Compound concentration 100.0 nM
[23] = molecular target: Serine/threonine-protein kinase MARK1 (Homo sapiens) (UniProt Q9P0L2); details: Compound concentration 100.0 nM
[24] = molecular target: Dual specificity mitogen-activated protein kinase kinase 2 (Homo sapiens) (UniProt P36507); details: Compound concentration 100.0 nM
Sequence of Dual specificity mitogen-activated protein kinase kinase 2 (Homo sapiens) (P36507 whole entry): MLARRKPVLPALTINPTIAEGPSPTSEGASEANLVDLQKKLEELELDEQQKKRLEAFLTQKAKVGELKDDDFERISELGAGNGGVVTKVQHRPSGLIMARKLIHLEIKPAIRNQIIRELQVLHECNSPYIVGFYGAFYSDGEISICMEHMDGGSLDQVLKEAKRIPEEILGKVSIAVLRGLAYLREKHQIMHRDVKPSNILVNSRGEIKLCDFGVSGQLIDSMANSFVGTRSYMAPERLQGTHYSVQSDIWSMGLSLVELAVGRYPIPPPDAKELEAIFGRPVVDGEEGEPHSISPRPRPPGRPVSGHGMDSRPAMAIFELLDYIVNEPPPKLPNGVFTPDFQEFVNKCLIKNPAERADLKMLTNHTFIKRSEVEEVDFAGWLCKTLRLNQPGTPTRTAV

[25] = molecular target: Hepatocyte growth factor receptor (Homo sapiens) (UniProt P08581); details: Compound concentration 100.0 nM
[26] = molecular target: Serine/threonine-protein kinase 4 (Homo sapiens) (UniProt Q13043); details: Compound concentration 100.0 nM
Sequence of Serine/threonine-protein kinase 4 (Homo sapiens) (Q13043 whole entry): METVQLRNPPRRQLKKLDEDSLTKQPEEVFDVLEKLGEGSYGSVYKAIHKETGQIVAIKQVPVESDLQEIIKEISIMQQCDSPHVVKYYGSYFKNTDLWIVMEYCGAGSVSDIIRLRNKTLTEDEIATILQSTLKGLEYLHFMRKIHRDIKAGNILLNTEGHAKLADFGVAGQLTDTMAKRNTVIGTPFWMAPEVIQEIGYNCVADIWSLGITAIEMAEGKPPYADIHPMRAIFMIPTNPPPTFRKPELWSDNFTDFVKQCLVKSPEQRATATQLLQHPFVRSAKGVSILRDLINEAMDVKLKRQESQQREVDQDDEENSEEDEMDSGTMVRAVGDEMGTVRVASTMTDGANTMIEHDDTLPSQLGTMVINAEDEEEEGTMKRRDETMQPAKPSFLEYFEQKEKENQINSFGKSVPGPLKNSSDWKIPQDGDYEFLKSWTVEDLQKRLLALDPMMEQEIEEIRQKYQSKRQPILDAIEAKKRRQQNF

[27] = molecular target: Serine/threonine-protein kinase Nek10 (Homo sapiens) (UniProt Q6ZWH5); details: Compound concentration 100.0 nM
[28] = molecular target: Mitogen-activated protein kinase 13 (Homo sapiens) (UniProt O15264); details: Compound concentration 100.0 nM
Sequence of Mitogen-activated protein kinase 13 (Homo sapiens) (O15264 whole entry): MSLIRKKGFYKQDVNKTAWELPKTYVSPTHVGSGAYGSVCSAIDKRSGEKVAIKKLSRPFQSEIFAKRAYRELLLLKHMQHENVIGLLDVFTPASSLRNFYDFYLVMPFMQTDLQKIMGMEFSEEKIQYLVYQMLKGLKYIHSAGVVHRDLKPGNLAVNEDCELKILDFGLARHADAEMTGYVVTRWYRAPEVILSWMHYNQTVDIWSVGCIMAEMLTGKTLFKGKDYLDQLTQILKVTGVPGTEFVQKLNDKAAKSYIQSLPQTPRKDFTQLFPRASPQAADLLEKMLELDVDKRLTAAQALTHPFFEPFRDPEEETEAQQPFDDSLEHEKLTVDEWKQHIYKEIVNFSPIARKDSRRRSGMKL

[29] = molecular target: Cyclin-dependent kinase 17 (Homo sapiens) (UniProt Q00537); details: Compound concentration 100.0 nM
[30] = tested on: Phosphatidylinositol 4,5-bisphosphate 3-kinase catalytic subunit alpha isoform (Homo sapiens), P42336 [I800L]; details: Compound concentration 100.0 nM
[31] = molecular target: cAMP-dependent protein kinase catalytic subunit PRKX (Homo sapiens) (UniProt P51817); details: Compound concentration 100.0 nM
Sequence of cAMP-dependent protein kinase catalytic subunit PRKX (Homo sapiens) (P51817 whole entry): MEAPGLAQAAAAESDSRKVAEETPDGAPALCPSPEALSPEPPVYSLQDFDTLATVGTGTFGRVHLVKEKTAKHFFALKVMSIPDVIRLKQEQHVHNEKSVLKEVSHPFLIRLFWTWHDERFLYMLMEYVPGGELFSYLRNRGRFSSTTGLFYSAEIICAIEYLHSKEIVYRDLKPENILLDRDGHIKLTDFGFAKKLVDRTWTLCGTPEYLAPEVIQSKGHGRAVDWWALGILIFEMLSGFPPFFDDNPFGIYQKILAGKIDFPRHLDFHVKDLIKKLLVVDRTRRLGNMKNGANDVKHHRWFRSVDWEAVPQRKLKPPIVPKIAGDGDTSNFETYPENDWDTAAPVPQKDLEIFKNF

[32] = molecular target: Ribosomal protein S6 kinase alpha-3 (Homo sapiens) (UniProt P51812); details: Compound concentration 100.0 nM
[33] = molecular target: NUAK family SNF1-like kinase 2 (Homo sapiens) (UniProt Q9H093); details: Compound concentration 100.0 nM
[34] = molecular target: SRSF protein kinase 2 (Homo sapiens) (UniProt P78362); details: Compound concentration 100.0 nM
[35] = molecular target: Testis-specific serine/threonine-protein kinase 3 (Homo sapiens) (UniProt Q96PN8); details: Compound concentration 100.0 nM
[36] = molecular target: Tyrosine-protein kinase TXK (Homo sapiens) (UniProt P42681); details: Compound concentration 100.0 nM
[37] = molecular target: Vascular endothelial growth factor receptor 2 (Homo sapiens) (UniProt P35968); details: Compound concentration 100.0 nM
[38] = molecular target: Serine/threonine-protein kinase 32A (Homo sapiens) (UniProt Q8WU08); details: Compound concentration 100.0 nM
[39] = molecular target: Serine/threonine-protein kinase 32C (Homo sapiens) (UniProt Q86UX6); details: Compound concentration 100.0 nM
[40] = molecular target: Tyrosine-protein kinase Yes (Homo sapiens) (UniProt P07947); details: Compound concentration 100.0 nM
[41] = molecular target: Mitogen-activated protein kinase kinase kinase 20 (Homo sapiens, UniProt Q9NYL2); details: Compound concentration 100.0 nM
[42] = molecular target: Tyrosine-protein kinase ZAP-70 (Homo sapiens) (UniProt P43403); details: Compound concentration 100.0 nM
[43] = molecular target: 5-hydroxytryptamine receptor 1B (Homo sapiens) (UniProt P28222); details: Compound concentration 10.0 uM
[44] = molecular target: 5-hydroxytryptamine receptor 1E (Homo sapiens) (UniProt P28566); details: Compound concentration 10.0 uM
Sequence of 5-hydroxytryptamine receptor 1E (Homo sapiens) (P28566 whole entry): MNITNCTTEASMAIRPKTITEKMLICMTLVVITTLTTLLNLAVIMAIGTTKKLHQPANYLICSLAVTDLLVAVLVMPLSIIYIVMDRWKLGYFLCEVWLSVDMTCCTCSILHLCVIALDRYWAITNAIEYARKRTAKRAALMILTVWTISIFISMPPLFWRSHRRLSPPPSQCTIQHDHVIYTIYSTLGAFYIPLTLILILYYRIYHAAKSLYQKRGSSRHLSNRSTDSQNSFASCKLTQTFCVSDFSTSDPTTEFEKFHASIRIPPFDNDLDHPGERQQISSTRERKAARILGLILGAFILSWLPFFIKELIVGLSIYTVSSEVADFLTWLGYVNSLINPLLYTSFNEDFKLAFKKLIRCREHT

[45] = molecular target: 5-hydroxytryptamine receptor 2B (Homo sapiens) (UniProt P41595); details: Compound concentration 10.0 uM

With `Nc1c(C(=O)NCc2ccc(C(=O)NCCCC3CCCCC3)cc2)cnn1-c1ccccc1` [SR-318] as the compound, how does the residual activity [1] read?
Its residual activity is 100%.

What about the residual activity [2] of the same compound?
Its residual activity is 100%.

And the residual activity [3]?
Its residual activity is 100%.

And the residual activity [4]?
The residual activity was 96%.

What about the residual activity [5] of the same compound?
Its residual activity is 100%.

And the residual activity [6]?
The residual activity was 100%.

What about the residual activity [7] of the same compound?
The residual activity was 86%.

And the residual activity [8]?
Its residual activity is 93%.

And the residual activity [9]?
Its residual activity is 96%.

What about the residual activity [10] of the same compound?
The residual activity was 98%.

What about the residual activity [11] of the same compound?
The residual activity was 100%.

What about the residual activity [12] of the same compound?
Its residual activity is 84%.

What about the residual activity [13] of the same compound?
Its residual activity is 100%.

And the residual activity [14]?
Its residual activity is 99%.

And the residual activity [15]?
Its residual activity is 95%.

And the residual activity [16]?
Its residual activity is 100%.

And the residual activity [17]?
Its residual activity is 100%.

And the residual activity [18]?
Its residual activity is 100%.

What about the residual activity [19] of the same compound?
The residual activity was 73%.

And the residual activity [20]?
Its residual activity is 100%.

And the residual activity [21]?
The residual activity was 100%.

What about the residual activity [22] of the same compound?
The residual activity was 87%.

What about the residual activity [23] of the same compound?
The residual activity was 79%.

And the residual activity [24]?
The residual activity was 100%.

What about the residual activity [25] of the same compound?
The residual activity was 95%.

What about the residual activity [26] of the same compound?
The residual activity was 100%.

What about the residual activity [27] of the same compound?
Its residual activity is 100%.

What about the residual activity [28] of the same compound?
Its residual activity is 100%.

What about the residual activity [29] of the same compound?
The residual activity was 78%.

And the residual activity [30]?
Its residual activity is 96%.

And the residual activity [31]?
Its residual activity is 87%.

What about the residual activity [32] of the same compound?
The residual activity was 92%.

What about the residual activity [33] of the same compound?
The residual activity was 100%.

What about the residual activity [34] of the same compound?
Its residual activity is 100%.

What about the residual activity [35] of the same compound?
Its residual activity is 100%.

And the residual activity [36]?
The residual activity was 83%.

What about the residual activity [37] of the same compound?
The residual activity was 100%.

What about the residual activity [38] of the same compound?
Its residual activity is 96%.

And the residual activity [39]?
Its residual activity is 90%.

What about the residual activity [40] of the same compound?
The residual activity was 100%.

And the residual activity [41]?
The residual activity was 42%.

And the residual activity [42]?
The residual activity was 100%.

And the inhibition [43]?
The inhibition was 10.4%.

What about the inhibition [44] of the same compound?
The inhibition was 1%.

And the inhibition [45]?
The inhibition was 19.9%.

Which results are given for `O=C(NCCCC1CCCCC1)c1ccc(CNC(=O)c2cnn(-c3ccccc3)c2C(F)(F)F)cc1` [SR-321]?
residual activity [1]: 80%; residual activity [2]: 100%; residual activity [3]: 83%; residual activity [4]: 100%; residual activity [5]: 100%; residual activity [6]: 100%; residual activity [7]: 100%; residual activity [8]: 100%; residual activity [9]: 96%; residual activity [10]: 100%; residual activity [11]: 100%; residual activity [12]: 80%; residual activity [13]: 100%; residual activity [14]: 100%; residual activity [15]: 88%; residual activity [16]: 100%; residual activity [17]: 100%; residual activity [18]: 100%; residual activity [19]: 100%; residual activity [20]: 100%; residual activity [21]: 78%; residual activity [22]: 81%; residual activity [23]: 100%; residual activity [24]: 93%; residual activity [25]: 100%; residual activity [26]: 100%; residual activity [27]: 100%; residual activity [28]: 100%; residual activity [29]: 100%; residual activity [30]: 70%; residual activity [31]: 100%; residual activity [32]: 100%; residual activity [33]: 100%; residual activity [34]: 100%; residual activity [35]: 100%; residual activity [36]: 100%; residual activity [37]: 97%; residual activity [38]: 76%; residual activity [39]: 100%; residual activity [40]: 100%; residual activity [41]: 100%; residual activity [42]: 100%; inhibition [43]: 9.89%; inhibition [44]: -6.92%; inhibition [45]: 3.69%
